Our source for the IC50 values is patent US10457654B2 (GENENTECH, INC., priority 2017, dated 2019).

In this test the target is hNav1.7 (Homo sapiens (Human), UniProt Q15858). Briefly: Tritiated compound binding to membranes from cells expressing hNav1.7 and the β1 subunit, competitive binding (LBA, Ex. 243A). The following applies: 100 pM [3H]compound, 18 h, room temperature. The protocol: Tritiated Compound Binding to Membranes Isolated from Cells that Heterologously Express hNav1.7 and the β1 Subunit
Sequence of hNav1.7 (Q15858 whole entry, looked up): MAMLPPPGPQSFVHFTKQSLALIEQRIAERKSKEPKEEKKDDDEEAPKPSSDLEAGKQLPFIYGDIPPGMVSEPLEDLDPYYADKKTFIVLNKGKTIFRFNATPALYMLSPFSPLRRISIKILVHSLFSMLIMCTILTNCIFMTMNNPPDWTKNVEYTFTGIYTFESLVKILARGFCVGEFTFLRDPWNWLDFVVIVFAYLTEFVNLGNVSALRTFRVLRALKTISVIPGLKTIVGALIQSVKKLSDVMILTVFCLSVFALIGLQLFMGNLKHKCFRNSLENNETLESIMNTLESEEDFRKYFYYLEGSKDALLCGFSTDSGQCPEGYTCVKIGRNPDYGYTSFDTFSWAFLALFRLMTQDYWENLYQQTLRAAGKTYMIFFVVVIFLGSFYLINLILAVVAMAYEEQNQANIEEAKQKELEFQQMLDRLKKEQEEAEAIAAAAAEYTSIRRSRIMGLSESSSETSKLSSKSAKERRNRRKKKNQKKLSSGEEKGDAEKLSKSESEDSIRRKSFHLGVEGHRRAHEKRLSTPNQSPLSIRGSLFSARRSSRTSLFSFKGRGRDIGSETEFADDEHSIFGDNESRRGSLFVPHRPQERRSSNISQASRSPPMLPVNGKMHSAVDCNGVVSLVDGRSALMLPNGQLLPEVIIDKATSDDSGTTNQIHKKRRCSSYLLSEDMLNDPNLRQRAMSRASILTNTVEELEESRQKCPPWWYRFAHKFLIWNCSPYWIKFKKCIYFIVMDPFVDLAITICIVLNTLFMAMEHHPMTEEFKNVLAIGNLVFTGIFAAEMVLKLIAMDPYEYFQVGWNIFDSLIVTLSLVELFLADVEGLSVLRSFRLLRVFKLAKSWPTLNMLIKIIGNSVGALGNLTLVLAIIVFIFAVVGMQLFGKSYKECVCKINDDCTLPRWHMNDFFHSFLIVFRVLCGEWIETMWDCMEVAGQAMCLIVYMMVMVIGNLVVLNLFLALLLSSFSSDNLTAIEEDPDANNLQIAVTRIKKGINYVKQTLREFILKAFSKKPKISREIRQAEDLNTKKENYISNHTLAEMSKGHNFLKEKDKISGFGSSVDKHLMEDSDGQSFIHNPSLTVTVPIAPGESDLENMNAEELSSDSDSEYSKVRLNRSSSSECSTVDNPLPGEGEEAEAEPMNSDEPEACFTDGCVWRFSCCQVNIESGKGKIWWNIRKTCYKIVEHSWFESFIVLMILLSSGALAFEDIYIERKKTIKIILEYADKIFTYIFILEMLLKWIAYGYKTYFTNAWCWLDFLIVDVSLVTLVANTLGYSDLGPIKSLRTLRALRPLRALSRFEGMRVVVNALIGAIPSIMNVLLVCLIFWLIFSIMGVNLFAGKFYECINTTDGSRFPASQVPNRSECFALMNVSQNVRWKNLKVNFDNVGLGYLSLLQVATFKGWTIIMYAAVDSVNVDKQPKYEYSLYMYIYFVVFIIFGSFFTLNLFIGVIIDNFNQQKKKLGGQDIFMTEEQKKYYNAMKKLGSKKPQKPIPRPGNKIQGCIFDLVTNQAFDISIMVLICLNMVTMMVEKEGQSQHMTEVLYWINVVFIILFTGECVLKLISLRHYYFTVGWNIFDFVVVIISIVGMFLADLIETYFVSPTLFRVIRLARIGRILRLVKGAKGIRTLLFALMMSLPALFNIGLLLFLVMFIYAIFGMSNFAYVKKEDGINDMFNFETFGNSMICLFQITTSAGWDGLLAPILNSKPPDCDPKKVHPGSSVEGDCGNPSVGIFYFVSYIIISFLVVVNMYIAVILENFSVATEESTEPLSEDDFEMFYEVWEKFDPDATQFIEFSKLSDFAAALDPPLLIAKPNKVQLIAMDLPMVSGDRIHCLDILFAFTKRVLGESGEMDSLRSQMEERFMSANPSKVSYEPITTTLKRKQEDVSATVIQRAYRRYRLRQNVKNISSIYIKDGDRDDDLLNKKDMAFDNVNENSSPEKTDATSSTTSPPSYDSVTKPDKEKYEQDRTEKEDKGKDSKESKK
Sequence of hNav1.7 (Q07699 whole entry partner, looked up): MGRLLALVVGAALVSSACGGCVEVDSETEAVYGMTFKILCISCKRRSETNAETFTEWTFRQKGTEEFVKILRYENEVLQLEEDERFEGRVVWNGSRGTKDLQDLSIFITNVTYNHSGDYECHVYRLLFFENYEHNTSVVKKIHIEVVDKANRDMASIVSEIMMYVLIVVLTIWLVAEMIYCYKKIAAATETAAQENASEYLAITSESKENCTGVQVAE
Preparation of membranes containing recombinantly expressed sodium channels: Frozen recombinant cell pellets were thawed on ice and diluted to 4 times the cell pellet weight with ice cold 50 mM Tris HCl, pH 7.4 buffer. The cell suspensions were homogenized on ice using a motorized glass dounce homogeniser. Homogenates were further diluted 8.4 times with ice cold 50 mM Tris HCl, pH 7.4 buffer and then centrifuged at 200×g at 4° C. for 15 min. The supernatants were collected and centrifuged at 10000×g at 4° C. for 50 min. […] The homogenized membranes were then processed through a syringe equipped with a 26 gauge needle. Protein concentrations were determined by Bradford Assay and the membranes were stored at −80° C.
Radioligand Binding Studies: Saturation experiments. A competitive NaV1.7 inhibitor having a methyl group was tritiated. Three tritiums were incorporated in place of methyl hydrogens to generate [^3H]compound. Binding of this radioligand was performed in 5 mL borosilicate glass test tubes at room temperature. […] Non-specific binding was determined in the presence of 1 μM unlabeled compound. After 18h, the reactants were filtered through GF/C glass fiber filters presoaked in 0.5% w/v polyethylene imine. […] [^3H]compound bound to filters was quantified by liquid scintillation counting.
Competitive binding experiments: Binding reactions were performed in 96-well polypropylene plates at room temperature for 18h. In 360 μL, membranes were incubated with 100 pM [^3H]compound and increasing concentrations of Test Compound. Non-specific binding was defined in the presence of 1 μM unlabeled compound. Reactions were transferred and filtered through 96-well glass fiber/C filter plates presoaked with 0.5% polyethylene imine. The filtered reactions were washed 5 times with 200 μL ice cold buffer containing 0.25% BSA. Bound radioactivity was determined by liquid scintillation counting.
Data Analysis: For saturation experiments, non-specific binding was subtracted from total binding to provide specific binding and these values were recalculated in terms of pmol ligand bound per mg protein. Saturation curves were constructed and dissociation constants were calculated using the single site ligand binding model: Beq=(Bmax*X)/(X+Kd), where Beq is the amount of ligand bound at equilibrium, Bmax is the maximum receptor density, Kd is the dissociation constant for the ligand, and X is the free ligand concentration. For competition studies percent inhibition was determined and IC50 values were calculated using a 4 parameter logistic model (% inhibition=(A+((B−A)/(1+((x/C)^D)))) using XLfit, where A and B are the maximal and minimum inhibition respectively, C is the IC50 concentration and D is the (Hill) slope.

Setting [1] is: read-out: Nav1.7 (LBA) (Ex. 243A).
The mark [2] stands for this setting: read-out: Nav1.7 LBA (Ex. 243A) IC50.

Molecules are shown by their SMILES. Counter-ions that a name gives are not always drawn. Like-named read-outs stand apart in the source and are kept apart here.

As to `CN(C)[C@H]1CCCC[C@@H]1Nc1cc(F)c(S(=O)(=O)Nc2nccs2)cc1Cl` [Example 2, 5-chloro-4-(((1S,2S)-2-(dimethylamino)cyclohexyl)amino)-2-fluoro-N-(thiazol-2-yl)benzenesulfonamide], the IC50 under setting [1] is 38.2 nM. For the molecule `CC(O)CN(C)[C@H]1CCCC[C@@H]1Nc1cc(F)c(S(=O)(=O)Nc2nccs2)cc1Cl` (stereo partly drawn) [Example 45, 5-chloro-2-fluoro-4-(((1 S,2S)-2-((2-hydroxypropyl)(methyl)amino)cyclohexyl)amino)-N-(thiazol-2-yl)benzenesulfonamide], the IC50 under setting [2] stood at 12.7 nM. With `CC(O)CN(C)[C@H]1CCCC[C@@H]1Nc1cc(F)c(S(=O)(=O)Nc2cccc(F)n2)cc1Cl` (stereo partly drawn) [Example 86, 5-chloro-2-fluoro-N-(6-fluoropyridin-2-yl)-4-(((1S,2S)-2-((2-hydroxypropyl)(methyl)amino)cyclohexyl)amino)benzenesulfonamide], the IC50 under setting [2] was 38.1 nM. On to `CN(C)[C@H]1CCCC[C@@H]1Nc1cc(F)c(S(=O)(=O)Nc2nccs2)cc1C1CC1` [Example 15, 5-cyclopropyl-4-[[(1S,2S)-2-(dimethylamino)cyclohexyl]amino]-2-fluoro-N-thiazol-2-yl-benzenesulfonamide], for which the IC50 under setting [1] is 26.9 nM. Turning to `O=S(=O)(Nc1nccs1)c1cc(Cl)c(N[C@H]2CCCC[C@@H]2NC2CCC2)cc1F` [Example 16, 5-chloro-4-[[(1S,2S)-2-(cyclobutylamino)cyclohexyl]amino]-2-fluoro-N-thiazol-2-yl-benzenesulfonamide], the IC50 under setting [1] was 325 nM. As to `CN(C)[C@H]1CC[C@@H](c2cccc(C(F)(F)F)c2)C[C@@H]1Nc1cc(F)c(S(=O)(=O)Nc2nccs2)cc1Cl` [Example 88, 5-chloro-4-(((1S,2S,5R)-2-(dimethylamino)-5-(3-(trifluoromethyl)phenyl)cyclohexyl)amino)-2-fluoro-N-(thiazol-2-yl)benzenesulfonamide], the IC50 under setting [2] turned out to be 201 nM. As to `CN(C)[C@H]1CCCC[C@@H]1Nc1cc(F)c(S(=O)(=O)Nc2ncc(Cl)s2)cc1Cl` [Example 26, 5-chloro-N-(5-chlorothiazol-2-yl)-4-(((1 S,2S)-2-(dimethylamino)cyclohexyl)amino)-2-fluorobenzenesulfonamide], under setting [1], the IC50 is 41.5 nM. Regarding `CN(C)[C@H]1CCCC[C@@H]1Nc1cc(F)c(S(=O)(=O)Nc2cccc(Cl)n2)cc1Cl` [Example 85, 5-chloro-N-(6-chloropyridin-2-yl)-4-(((1S,2S)-2-(dimethylamino)cyclohexyl)amino)-2-fluorobenzenesulfonamide], under setting [2], the IC50 is 252 nM. As to `CCN[C@H]1CCCC[C@@H]1Nc1cc(F)c(S(=O)(=O)Nc2nccs2)cc1Br` [Example 52, 5-bromo-4-(((1S,2S)-2-(ethylamino)cyclohexyl)amino)-2-fluoro-N-(thiazol-2-yl)benzenesulfonamide formate], under setting [2], the IC50 turned out to be 8.48 nM. Regarding `CN(CC1CC1)[C@H]1CCCC[C@@H]1Nc1cc(F)c(S(=O)(=O)Nc2nccs2)cc1Cl` [Example 31, 5-chloro-4-(((1S,2S)-2-((cyclopropylmethyl)(methyl)amino)cyclohexyl)amino)-2-fluoro-N-(thiazol-2-yl)benzenesulfonamide], the IC50 under setting [2] is 163 nM.

On to `CCCN(C)[C@H]1CCCC[C@@H]1Nc1cc(F)c(S(=O)(=O)Nc2nccs2)cc1Cl` [Example 29, 5-chloro-2-fluoro-4-(((1S,2S)-2-(methyl(propyl)amino)cyclohexyl)amino)-N-(thiazol-2-yl)benzenesulfonamide], for which, under setting [2], the IC50 came out at 60.1 nM. Take `CNCCN(C)[C@H]1CCCC[C@@H]1Nc1cc(F)c(S(=O)(=O)Nc2nccs2)cc1Cl` [Example 58, 5-chloro-2-fluoro-4-(((1S,2S)-2-(methyl(2-(methylamino)ethyl)amino)cyclohexyl)amino)-N-(thiazol-2-yl)benzenesulfonamide formate]: the IC50 under setting [2] was found to be 3.42 nM.
